Test results from ChEMBL document CHEMBL1201862, “PubChem BioAssay data set” (2004).
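All cell lines were grown in 96-well plates and treated with compound for 48 hours. Here, GI50 denotes the concentration required for 50% inhibition of growth.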 The source made the active and inactive calls. Cut-off read from the data, not from the text of the source: active = GI50 up to about 1.1 µM and inactive = higher.

Columns and labels:
Assay in all cases: NCI-60 cell line screen, 48 h
RXF 393 = tested on: RXF 393
SF-268 = tested on: SF-268
A498 = tested on: A498
UACC-62 = tested on: UACC-62
SNB-19 = tested on: SNB-19
HL-60 = tested on: HL-60
KM12 = tested on: KM12
UACC-257 = tested on: UACC-257
786-0 = tested on: 786-0
TK-10 = tested on: TK-10
NCI-H226 = tested on: NCI-H226
SK-MEL-5 = tested on: SK-MEL-5
CAKI-1 = tested on: CAKI-1
OVCAR-5 = tested on: OVCAR-5
HT-29 = tested on: HT-29
MOLT-4 = tested on: MOLT-4
SK-OV-3 = tested on: SK-OV-3

Compound | GI50 (RXF 393) | GI50 (SF-268) | GI50 (A498) | GI50 (UACC-62) | GI50 (SNB-19) | GI50 (HL-60) | GI50 (KM12) | GI50 (UACC-257) | GI50 (786-0) | GI50 (TK-10) | GI50 (NCI-H226) | GI50 (SK-MEL-5) | GI50 (CAKI-1) | GI50 (OVCAR-5) | GI50 (HT-29) | GI50 (MOLT-4) | GI50 (SK-OV-3)
CC1(C)CC(=O)C(/C(=N/NC(=S)NN)C(=O)Nc2nc3ccc([N+](=O)[O-])cc3s2)C(=O)C1 | > 100 µM (inactive) | > 100 µM (inactive) | > 100 µM (inactive) | > 100 µM (inactive) | > 100 µM (inactive) | > 100 µM (inactive) | > 100 µM (inactive) | > 100 µM (inactive) | > 100 µM (inactive) | > 100 µM (inactive) | 55.5 µM (inactive) | > 100 µM (inactive) | > 100 µM (inactive) | > 100 µM (inactive) | > 100 µM (inactive) | 55.1 µM (inactive) | > 100 µM (inactive)
CC(Oc1ccc(OCC2CCCCC2)cc1)C(N)=O (stereo unspecified) | – | > 100 µM (inactive) | – | > 100 µM (inactive) | – | > 100 µM (inactive) | > 100 µM (inactive) | 72.3 µM (inactive) | > 100 µM (inactive) | > 100 µM (inactive) | > 100 µM (inactive) | > 100 µM (inactive) | – | – | > 100 µM (inactive) | > 100 µM (inactive) | > 100 µM (inactive)
O=C(C/C(=N\NC(=O)C[n+]1ccccc1)C(=O)Nc1nc2ccc([N+](=O)[O-])cc2s1)CC(c1ccccc1)c1c(O)c2ccccc2oc1=O (stereo unspecified) | > 100 µM (inactive) | > 100 µM (inactive) | 46.3 µM (inactive) | > 100 µM (inactive) | > 100 µM (inactive) | > 100 µM (inactive) | > 100 µM (inactive) | > 100 µM (inactive) | > 100 µM (inactive) | > 100 µM (inactive) | – | > 100 µM (inactive) | > 100 µM (inactive) | > 100 µM (inactive) | > 100 µM (inactive) | > 100 µM (inactive) | > 100 µM (inactive)
CC1=C(C(=O)Nc2cc(F)c(F)cc2F)C(c2ccc([N+](=O)[O-])cc2)C(C(=O)Nc2cc(F)c(F)cc2F)=C(C)N1 | 10.6 µM (inactive) | 22.2 µM (inactive) | 18.2 µM (inactive) | – | 48.6 µM (inactive) | 11.2 µM (inactive) | 29.3 µM (inactive) | 28.7 µM (inactive) | 42.7 µM (inactive) | 22.5 µM (inactive) | 37.8 µM (inactive) | 23.6 µM (inactive) | 18.5 µM (inactive) | 35 µM (inactive) | 34.1 µM (inactive) | 15 µM (inactive) | 54.5 µM (inactive)
Cc1ccc(C(=O)CC2(O)C(=O)Nc3c(C)cc(Cl)cc32)cc1 (stereo unspecified) | > 100 µM (inactive) | > 100 µM (inactive) | – | – | > 100 µM (inactive) | 59.8 µM (inactive) | > 100 µM (inactive) | > 100 µM (inactive) | > 100 µM (inactive) | > 100 µM (inactive) | > 100 µM (inactive) | > 100 µM (inactive) | > 100 µM (inactive) | > 100 µM (inactive) | > 100 µM (inactive) | 59.4 µM (inactive) | > 100 µM (inactive)
O=C1CCC(=O)C12CCc1ccccc12 | > 100 µM (inactive) | > 100 µM (inactive) | – | > 100 µM (inactive) | – | > 100 µM (inactive) | – | – | > 100 µM (inactive) | > 100 µM (inactive) | – | – | > 100 µM (inactive) | – | > 100 µM (inactive) | – | > 100 µM (inactive)
CCOC(=O)C(Cc1c(C=O)[nH]c2ccccc12)(NC(=O)c1ccccc1)C(=O)OCC | 11 µM (inactive) | 15 µM (inactive) | – | – | 4.93 µM (inactive) | > 100 µM (inactive) | 10.3 µM (inactive) | 16.9 µM (inactive) | 16.7 µM (inactive) | 22.4 µM (inactive) | 19.5 µM (inactive) | 11.4 µM (inactive) | – | 20.5 µM (inactive) | 16.4 µM (inactive) | 6.65 µM (inactive) | 23.9 µM (inactive)
O=C(/C=C/c1ccc(O)c(O)c1)OC1C[C@@](O)(C(=O)O)C[C@@H](O)[C@H]1OC(=O)/C=C/c1ccc(O)c(O)c1 (stereo partly specified) | > 100 µM (inactive) | > 100 µM (inactive) | > 100 µM (inactive) | > 100 µM (inactive) | – | > 100 µM (inactive) | > 100 µM (inactive) | > 100 µM (inactive) | > 100 µM (inactive) | > 100 µM (inactive) | > 100 µM (inactive) | > 100 µM (inactive) | – | > 100 µM (inactive) | > 100 µM (inactive) | > 100 µM (inactive) | > 100 µM (inactive)
COC(=O)C1=Cc2cc3c(cc2[C@H](c2ccc4c(c2)OCO4)C1C(=O)OC)OCO3 (stereo partly specified) | 80.4 µM (inactive) | > 100 µM (inactive) | 0.0745 µM (active) | 58.6 µM (inactive) | > 100 µM (inactive) | 65.6 µM (inactive) | 67.1 µM (inactive) | > 100 µM (inactive) | > 100 µM (inactive) | > 100 µM (inactive) | > 100 µM (inactive) | 46.6 µM (inactive) | 74.1 µM (inactive) | > 100 µM (inactive) | 36.2 µM (inactive) | 35.6 µM (inactive) | > 100 µM (inactive)
